# Peptide text beside a SMILES is read from it. * marks the point of attachment. Cbz = O=C(OCc1ccccc1)*
# How the values were obtained:
# PARP16 [1] = molecular target: T1, PARP16 (Homo sapiens, UniProt Q8N5Y8); assay: Nutrient starvation; assay type: cell-based; settings: HAP1 WT, HBSS 16 h; for effect on PARP16 levels under amino acid and serum starvation: 10 μM MG132, 1 μM bafilomycin A1, 50 μM chloroquine
# T1 sequence (Q8N5Y8 1-322): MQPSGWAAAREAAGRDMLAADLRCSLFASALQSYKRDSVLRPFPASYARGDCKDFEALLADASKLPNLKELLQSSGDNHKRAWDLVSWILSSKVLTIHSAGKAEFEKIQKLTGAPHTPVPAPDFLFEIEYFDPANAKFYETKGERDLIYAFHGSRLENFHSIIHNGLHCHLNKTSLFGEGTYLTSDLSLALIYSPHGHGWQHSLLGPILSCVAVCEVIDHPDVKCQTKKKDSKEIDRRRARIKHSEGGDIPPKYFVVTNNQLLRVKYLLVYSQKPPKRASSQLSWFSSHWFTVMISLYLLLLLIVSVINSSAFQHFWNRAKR
# PARP16 [2] = molecular target: T1, PARP16; assay: In vitro competition assay of DB008 labeling; assay type: binding; settings: 1 μM competitor, 40 min, then DB008 20 min
# PARP16 [3] = settings: cited from earlier work
# SUMO-PARP16ΔTM = molecular target: T2, SUMO-PARP16ΔTM (Homo sapiens, UniProt Q8N5Y8); assay: Whole-protein electrospray ionization; assay type: binding; settings: 50- or 100-fold excess of HJ-52
# T2 sequence (Q8N5Y8 1-287 limits assumed): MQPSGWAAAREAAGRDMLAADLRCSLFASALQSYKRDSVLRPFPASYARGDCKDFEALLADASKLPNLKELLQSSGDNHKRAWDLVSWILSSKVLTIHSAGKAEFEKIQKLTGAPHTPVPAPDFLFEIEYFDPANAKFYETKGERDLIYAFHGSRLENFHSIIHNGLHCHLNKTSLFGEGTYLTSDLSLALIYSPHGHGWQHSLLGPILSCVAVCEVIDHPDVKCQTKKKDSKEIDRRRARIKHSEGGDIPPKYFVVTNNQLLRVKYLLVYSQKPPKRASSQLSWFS
# PARP1 [4] = molecular target: T3, PARP1 (Homo sapiens, UniProt P09874); assay: PASTA biochemical plate assay
# PARP1 [5] = molecular target: T3, PARP1; assay: Cellular PARylation assay in HEK 293T cells; assay type: cell-based
# PARP16ΔTM = molecular target: T4, PARP16ΔTM (Homo sapiens, UniProt Q8N5Y8); assay: in vitro MARylation assay; assay type: biochemical
# T4 sequence (Q8N5Y8 1-287 limits assumed): T2 sequence (Q8N5Y8 1-287 limits assumed)
# T3 sequence (P09874 whole entry): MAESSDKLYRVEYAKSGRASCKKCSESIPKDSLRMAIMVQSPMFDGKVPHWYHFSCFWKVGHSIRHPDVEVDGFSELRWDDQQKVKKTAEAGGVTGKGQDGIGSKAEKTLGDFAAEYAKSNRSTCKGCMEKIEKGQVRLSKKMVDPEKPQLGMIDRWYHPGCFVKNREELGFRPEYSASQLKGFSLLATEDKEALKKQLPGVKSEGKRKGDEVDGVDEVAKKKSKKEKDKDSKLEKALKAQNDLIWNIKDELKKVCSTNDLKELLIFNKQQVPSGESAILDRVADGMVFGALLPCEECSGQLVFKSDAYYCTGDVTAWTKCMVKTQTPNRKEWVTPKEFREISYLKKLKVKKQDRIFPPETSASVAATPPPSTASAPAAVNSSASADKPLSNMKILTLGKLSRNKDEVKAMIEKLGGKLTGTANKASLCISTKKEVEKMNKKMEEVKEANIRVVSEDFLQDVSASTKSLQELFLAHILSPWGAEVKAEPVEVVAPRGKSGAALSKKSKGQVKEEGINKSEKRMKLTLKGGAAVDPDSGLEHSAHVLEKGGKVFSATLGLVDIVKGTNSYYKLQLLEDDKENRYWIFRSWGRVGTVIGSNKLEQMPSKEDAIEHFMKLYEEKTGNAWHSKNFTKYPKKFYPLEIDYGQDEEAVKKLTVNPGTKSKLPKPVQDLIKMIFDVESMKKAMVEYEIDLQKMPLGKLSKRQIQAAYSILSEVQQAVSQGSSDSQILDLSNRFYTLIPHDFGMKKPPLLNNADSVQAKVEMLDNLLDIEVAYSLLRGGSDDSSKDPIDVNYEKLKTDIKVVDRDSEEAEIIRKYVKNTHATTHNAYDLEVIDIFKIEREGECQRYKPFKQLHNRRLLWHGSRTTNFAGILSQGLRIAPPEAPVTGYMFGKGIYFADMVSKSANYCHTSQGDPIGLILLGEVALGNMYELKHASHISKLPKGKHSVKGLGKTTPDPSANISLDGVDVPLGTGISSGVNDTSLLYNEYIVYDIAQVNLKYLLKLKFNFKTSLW
structure (smiles),measurement,setting,value
Cn1ncnc1[C@H]1c2n[nH]c(=O)c3cc(F)cc(c23)N[C@@H]1c1ccc(F)cc1 [talazoparib],effect on PARP16 levels in RIPA-soluble fraction,PARP16 [1],"increased, dose dependently"
same,effect on starvation-induced increase of PARP16 in RIPA-insoluble fraction,PARP16 [1],counteracted in a dose-dependent manner
same,competition of DB008 labeling,PARP16 [2],~70%
same,inhibition of recombinant PARP16,PARP16 [3],sub-micromolar potency
CCN(CC)CCCC(C)Nc1ccnc2cc(Cl)ccc12 (centres unmarked) [chloroquine],effect on PARP16 levels under amino acid and serum starvation,PARP16 [1],did not impact PARP16 levels
CO/C1=C\C(C)=C\[C@@H](C)[C@@H](O)[C@@H](C)C/C(C)=C/C=C/[C@H](OC)[C@@H]([C@@H](C)[C@@H](O)[C@H](C)[C@@]2(O)C[C@@H](O)[C@H](C)[C@@H](C(C)C)O2)OC1=O [bafilomycin A1],effect on PARP16 levels under amino acid and serum starvation,PARP16 [1],did not impact PARP16 levels
"C=CC(=O)N1CCN(C(=O)c2cc(Cc3n[nH]c(=O)c4ccccc34)ccc2F)CC1 [HJ-52, 4-(3-(4-acryloylpiperazine-1-carbonyl)-4-fluorobenzyl)phthalazin-1(2H)-one]",covalent complex formation with SUMO-PARP16ΔTM,SUMO-PARP16ΔTM,1 : 1 covalent complex
same,IC50,PARP1 [4],19 nM
same,potency against PARP1 relative to olaparib,PARP1 [4],equipotent
same,potency against PARP1 in cellular PARylation assay,PARP1 [5],low nanomolar potency
same,IC50,PARP16ΔTM,1180 nM
same,fold more potent against PARP16 than olaparib,PARP16ΔTM,about 2.5 fold
CC(C)C[C@@H](C=O)NC(=O)[C@H](CC(C)C)NC(=O)[C@H](CC(C)C)NC(=O)OCc1ccccc1 [MG132] (Cbz-Leu-Leu-Leu-aldehyde),effect on PARP16 levels under amino acid and serum starvation,PARP16 [1],did not impact PARP16 levels

# — article PMC9710212 (Chemical Science, 2022)
